“And” between values parts separate entries of the source, which are not always exact repeats. Equal values may be shown once. Where no end group is shown, it is not given here. [ ]: non-standard residue; d: D form. Hyp = O=C(O)[C@@H]1C[C@@H](O)CN1
Legend:
Assay type in all cases: cell-based
human dermal fibroblasts [1] = test: Sircol collagen assay, collagen synthesis by dermal fibroblasts; settings: 0.5 mg/ml peptide, three weeks stimulation
Experimental: (§1) The human cells used were obtained from tebu-bio GmbH, Offenbach, Germany. The chondrocytes (Cat. No. 402-05a) or dermal fibroblasts (Cat. No. 106-05a) were first sown in 12-well culture plates and cultured at 37° C., 5% CO2 in Ham's F12 medium, to which 10% fetal calf serum, 20 U/ml penicillin-streptomycin and 50 μg/ml ascorbic acid were added. On every other day, the culture medium was replaced by new culture medium until the cells had reached 80% confluence. […] To investigate the collagen metabolism, the amount of newly synthesized collagen was determined after stimulating the cells with 0.5 mg/ml BCP for three weeks. The synthesized collagen was isolated using the Sircol assay (Article No. 054S5000, 2019, tebu-bio, Offenbach, Germany, or Biocolor Ltd., UK) according to the manufacturer's instructions. In brief, the culture medium was initially discarded and the adherent cell layers were digested with 0.1 mg pepsin solution in 0.5 M acetic acid at 4° C. overnight. The cell suspensions were neutralized by adding 100 μl of an acid-neutralizing reagent. The synthesized collagen was then separated off by adding 200 μl of an isolation and concentration solution with vigorous shaking at 4° C. overnight. After centrifugation (12,000 rpm, 10 min) and discarding the supernatant, the isolated collagen was resuspended in 1 ml of Sircol dye solution. After 30 minutes of shaking and another centrifugation, the collagen pellet was covered with 750 μl of cold acidic solid washing reagent. After another centrifugation, the supernatant was again discarded and the enriched collagen was taken up in 250 μl of alkaline solution. In each case 200 μl of the sample solutions were used for photometric quantification of the synthesized collagen. The absorbance was measured at a wavelength of 492 nm. The amount of collagen synthesized in each case was determined on the basis of standardized collagen solutions.

human chondrocytes [2] = test: Sircol collagen assay, collagen synthesis by chondrocytes; settings: 0.5 mg/ml peptide, three weeks stimulation
Experimental: as §1

human dermal fibroblasts [3] = test: Blyscan glycosaminoglycan assay, proteoglycan synthesis by dermal fibroblasts; settings: 0.5 mg/ml, two weeks stimulation; for increase in the synthesis of proteoglycans by dermal fibroblasts compared to untreated controls: hydroxylated peptides
Experimental: The human cells used were obtained from tebu-bio GmbH, Offenbach, Germany. The chondrocytes (Cat. No. 402-05a) or dermal fibroblasts (Cat. No. 106-05a) were first sown in 12-well culture plates and cultured at 37° C., 5% CO2 in Ham's F12 medium, to which 10% fetal calf serum, 20 U/ml penicillin-streptomycin and 50 μg/ml ascorbic acid were added. On every other day, the culture medium was replaced by new culture medium until the cells had reached 80% confluence. […] The Blyscan glycosaminoglycan assay (Article No. 054B3000, 2019, tebu-bio, Offenbach, Germany, or Biocolor Ltd., UK) was used to determine proteoglycans. The biosynthesis of proteoglycans was determined after stimulating dermal fibroblasts for two weeks. According to the manufacturer's instructions, after discarding the culture medium, the cell layers were covered with 1 ml of papain extraction solution and incubated for three hours at 65° C. with vigorous shaking. The cell suspensions were then centrifuged (10,000 g, 10 min) and the supernatants were collected. After adding 1 ml of Blyscan dye solution and shaking (30 min), the supernatants were centrifuged again (12,000 rpm, 10 min) and then discarded. The isolated proteoglycan pellets were resuspended in 500 μl of dissociation solution. A photometric determination of the synthesized proteoglycan in 200 μl sample solution was carried out at a wavelength of 656 nm in comparison to untreated control experiments.

human chondrocytes [4] = test: Blyscan glycosaminoglycan assay, proteoglycan synthesis by chondrocytes; settings: 0.5 mg/ml; for increase in collagen synthesis (in the proteoglycan assay, chondrocytes): hydroxylated peptides

Row | Substance | increase in collagen synthesis by dermal fibroblasts compared to untreated controls (human dermal fibroblasts [1]) [%] | increase in collagen synthesis by chondrocytes compared to untreated controls (human chondrocytes [2]) [%] | increase in the synthesis of proteoglycans by dermal fibroblasts compared to untreated controls (human dermal fibroblasts [3]) [%] | increase in collagen synthesis (in the proteoglycan assay, chondrocytes) (human chondrocytes [4]) | increase in collagen synthesis (in the proteoglycan assay, dermal fibroblasts) (human dermal fibroblasts [3]; non-hydroxylated peptides) [%] | increase in the synthesis of proteoglycans by chondrocytes compared to untreated controls (human chondrocytes [4]; non-hydroxylated peptides) [%]
1 | Gly-Ala-4Hyp-Gly-Lys-Asp-Gly-Val-Arg-Gly-Leu-Thr-Gly-Pro-Ile-Gly-Pro-4Hyp-Gly-Pro-Ala-Gly-Ala-Arg (GA[Hyp]GKDGVRGLTGPIGP[Hyp]GPAGAR) [SEQ ID No. 9, collagen peptide comprising 24 amino acids] | 38 | 24 | 27 | 19% | – | –
2 | Gly-Ala-4Hyp-Gly-Pro-Pro-Gly-Pro-4Hyp-Gly-Ala-Arg-Gly-Gln-Ala-Gly-Val-Met-Gly-Phe-4Hyp-Gly-Pro-Lys [SEQ ID No. 10] | 35 | 20 | 25 | 29% | – | –
3 | Gly-Pro-4Hyp-Gly-Pro-Ala-Gly-Glu-Lys-Gly-Ala-4Hyp-Gly-Ala-Asp-Gly-Pro-Ala-Gly-Ala-4Hyp-Gly-Thr-Pro-Gly-Pro-Gln-Gly-Ile-Ala-Gly-Gln-Arg-Gly-Val (GP[Hyp]GPAGEKGA[Hyp]GADGPAGA[Hyp]GTPGPQGIAGQRGV) [SEQ ID No. 22, collagen peptide comprising 35 amino acids] | 43 | 46 | 28 | 26% | – | –
4 | Gly-Pro-4Hyp-Gly-Pro-Val-Gly-Thr-Lys-Gly-Ile-4Hyp-Gly-Val-Tyr-Gly-Pro-Leu-Gly-Ile-4Hyp-Gly-Thr-Pro-Gly-Pro-Trp-Gly-Ile-Leu-Gly-Thr-Lys-Arg-Gly-Val (GP[Hyp]GPVGTKGI[Hyp]GVYGPLGI[Hyp]GTPGPWGILGTKRGV) [SEQ ID No. 24, collagen peptide comprising 36 amino acids] | 36 | 26 | 26 | 15% and 26% | – | –
5 | Gly-Val-4Hyp-Gly-Lys-Tyr-Gly-Val-Arg-Gly-Leu-Thr-Gly-Pro-Ile-Gly-Pro-4Hyp-Gly-Pro-Leu-Gly-Ile-4Hyp-Gly-Trp-Lys-Gly-Phe-Val-Gly-Pro-Thr (GV[Hyp]GKYGVRGLTGPIGP[Hyp]GPLGI[Hyp]GWKGFVGPT) [SEQ ID No. 23, collagen peptide comprising 33 amino acids] | 39 | 19 | 22 | 11% | – | –
6 | KGAPGADGPAGAPGTPGPQ [SEQ ID No. 15, collagen peptide comprising 19 amino acids] | 23 | 31 | – | – | 18 | 6
7 | Lys-Gly-Ala-4Hyp-Gly-Ala-Asp-Gly-Pro-Ala-Gly-Ala-4Hyp-Gly-Thr-Pro-Gly-Pro-Gln (KGA[Hyp]GADGPAGA[Hyp]GTPGPQ) [SEQ ID No. 21, collagen peptide comprising 19 amino acids] | 36 | 55 | 27 | 22% | – | –

From patent US20220073592A1, “SYNTHETIC AND RECOMBINANT COLLAGEN PEPTIDES HAVING BIOLOGICAL ACTIVITY” (GELITA AG, priority 2018, published 2022)
